Laboratory results taken from patent publication US11931412B2, “JAK1 inhibitors and uses thereof” (Washington University, priority 2016, dated 2024).
Entries after “also recorded” stand apart in the source; their conditions may differ.

Experiments:
MC903-treated WT mice = test: Pharmacologic JAK inhibition in MC903-induced AD-associated itch model; type: in vivo, mouse
Procedure: (§1) For induction of AD-like inflammation and itch, mice were topically treated once daily with 2 nmol of MC903 (calcipotriol, Tocris Bioscience) for 7 days or 1 nmol of MC903 for 12 days on both ears in 20 μL of ethanol (vehicle) as previously described (Kim et al., 2013a, 2014, Siracusa et al., 2011, 2013b). Ear thickness measurements were performed daily with dial calipers as previously described (Kim et al., 2013a, 2014). At the end of the MC903 treatment, murine ear skin tissues were fixed in 4% paraformaldehyde (PFA) and embedded in paraffin before sectioning and staining with Hematoxylin & Eosin (H&E). Histology score was determined by the following formula using ImageJ analysis software (NIH) as previously described: (total number of lymphocytes per high power field (HPF)+thickness of the epidermis measured in microns from the basement membrane to the top of the stratum corneum) divided by 100 (Kim et al., 2014). All images were captured with a NanoZoomer 2.0-HT System (Hamamatsu). Murine disease and behavioral assessment data (below) were derived from two to three independent experiments. For behavioral assessments, mice were first acclimated to the recording room and behavior chambers at least one day prior to testing. On the day of testing, mice were again acclimated to the recording room and behavior chambers and then video recorded. The video recordings were then manually scored for number of scratching bouts per 30 minute block. One scratching bout was defined as one instance of lifting the hind paw from the floor, scratching, and returning the paw to the floor or placing the paw in the animal's mouth. All behavioral tests were performed on sex- and age-matched adult mice (8-12 weeks old). Stock ruxolitinib (Selleck Chemicals) solutions were prepared in DMSO (Sigma) per the manufacturer's instructions. For systemic treatments, mice treated twice daily with 100 μg ruxolitinib diluted in 100 μl PBS by intraperitoneal (i.p.) injection. For intrathecal (i.t.) ruxolitinib treatments, mice were injected 24 hours before behavioral assays with 10 μg ruxolitinib diluted in 10 μl PBS. Control mice were injected with appropriate vehicle controls (DMSO in PBS) of equivalent volumes.

mouse DRG neurons = test: Ratiometric calcium imaging of cultured murine DRG neurons; type: cell-based; details: for responsive neurons as a percentage of total mouse DRG neurons: cytokines 300 nM, histamine 50 μM, responsive = change in fluorescence ratio >10% of baseline; for calcium response of DRG neurons to stimulation: ex vivo stimulation, recombinant murine cytokine 300 nM; for cytokine-responsive neurons that also responded to IL-31 or histamine: serial stimulation with the cytokine, then IL-31 and histamine
Procedure: Murine DRG neurons were isolated and cultured using a previously published protocol with slight modification (Malin et al., 2007). Briefly, laminectomies were performed on mice and bilateral DRG were removed. After removal of connective tissues, DRG were transferred to 1 mL Ca^2+/Mg^2+-free Hank's Balanced Salt Solution (HBSS) containing 1 μL saturated NaHCO3, 0.35 mg L-cysteine, and 20 U papain (Worthington) and incubated at 37° C. for 20 min. The suspension was centrifuged, and the supernatant was removed and replaced with 1 mL Ca^2+/Mg^2+-free HBSS containing 3.75 mg collagenase type II (Worthington) and 7.5 mg dispase (Worthington) and incubated at 37° C. for 20 min. After digestion, neurons were gently triturated, pelleted, and then resuspended in Neurobasal-A medium containing 2% B-27 supplement (Gibco), 100 U/mL penicillin plus 100 μg/mL streptomycin (Sigma), 100 ng/mL nerve growth factor (Sigma), and 10% heat-inactivated FBS (Sigma). Neurons were then plated on a 12 mm glass coverslip pre-coated with poly-L-lysine (Sigma) and laminin (Sigma) and cultured under a humidified atmosphere of 5% CO2 at 37° C. for 18-24 hours before use.
Cultured DRG neurons were loaded with 4 μM Fura-2 AM (Life Technologies) in overnight DRG culture medium at 37° C. for 45 minutes. Cells were then washed three times and incubated in calcium imaging buffer (130 mM NaCl, 3 mM KCl, 2.5 mM CaCl2, 0.6 mM MgCl2, 10 mM HEPES, 10 mM glucose, 1.2 mM NaHCO3, pH 7.45) at room temperature for 30 minutes before use. All recombinant murine cytokines (IL-4, IL-5, and IL-13: Peprotech, IL-31: Bristol-Myers Squibb) were used at 300 nM, while histamine (Sigma) and capsaicin (Sigma) were used at 50 μM and 300 nM, respectively. Only sensory neurons that responded to a final challenge of 100 mM KCl were used in analyses. Fluorescence was recorded at 340 nm and 380 nm excitation wavelengths (F340, F380) using an inverted Nikon Ti-E microscope with NIS-Elements imaging software (Nikon Instruments). Fluorescence ratios (F340/F380) were normalized to baseline and used to reflect changes in intracellular Ca^2+ and neuronal activation upon stimulation. […] Data were derived from two to three independent experiments.

wild type (WT) mice = test: Topical MC903 treatment versus vehicle (AD-like inflammation and itch); type: in vivo, mouse; details: daily topical to ears, compared to vehicle (EtOH)
Procedure: as §1, with “old).” for “old). Stock ruxolitinib (Selleck Chemicals) solutions were prepared in DMSO (Sigma) per the manufacturer's instructions. For systemic treatments, mice treated twice daily with 100 μg ruxolitinib diluted in 100 μl PBS by intraperitoneal (i.p.) injection. For intrathecal (i.t.) ruxolitinib treatments, mice were injected 24 hours before behavioral assays with 10 μg ruxolitinib diluted in 10 μl PBS. Control mice were injected with appropriate vehicle controls (DMSO in PBS) of equivalent volumes.”

AD patients = details: cited from earlier work
patients with CIP = test: NRS itch scoring of CIP patients under treatment
CIP patient (Case 2) = test: Clinical history of CIP patient Case 2 (prior treatment); type: in vivo, human; details: course of oral prednisone prescribed for polymyalgia rheumatica
Procedure: This example describes four elderly CIP patients with evidence of marked immune dysregulation after exclusion of other cutaneous and systemic causes of pruritus.
TABLE 2 Legend: (a) Average and peak Numerical Rating Scale (NRS) itch scores at the time of presentation to our clinic are noted, respectively. (b) A thorough workup was performed to establish the diagnosis of CIP by exclusion of other cutaneous and systemic causes of pruritus, including psychiatric and neurologic conditions, renal failure, biliary dysfunction, thyroid abnormalities, HIV/AIDS, hepatitis B, and hepatitis C. […] (d) Outside of two episodes of septic arthritis arising from knee replacement surgery, the patient had no history of persistent or recurrent infections, autoimmunity, or malignancy.

[1] = i.p. 100 μg twice daily during MC903 treatment, Day 7

N#CC[C@H](C1CCCC1)n1cc(-c2ncnc3[nH]ccc23)cn1 [ruxolitinib]
ear skin thickening (MC903-treated WT mice; [1]): statistically significant, but only slight, reduction | histologic parameters of disease (MC903-treated WT mice; [1]): statistically significant, but only slight, reduction | scratching bouts (MC903-treated WT mice; [1]): significantly reduced | peripheral skin inflammation (ear thickness, histopathology, histology score) (MC903-treated WT mice; single intrathecal (i.t.) injection 10 μg): no effect | scratching bouts (MC903-treated WT mice; single intrathecal (i.t.) injection 10 μg, 24 hours before behavioral assay): marked reduction

IL-4: recombinant murine IL-4 (Peprotech)
responsive neurons as a percentage of total mouse DRG neurons (mouse DRG neurons): 4.1±0.5% | calcium response of DRG neurons to stimulation (mouse DRG neurons): rapid rise of intracellular calcium in a subset of neurons | cytokine-responsive neurons that also responded to IL-31 or histamine (mouse DRG neurons): 88.9%

C=C1/C(=C\C=C2/CCC[C@]3(C)[C@@H]([C@H](C)/C=C/[C@@H](O)C4CC4)CC[C@@H]23)C[C@@H](O)C[C@@H]1O [MC903, calcipotriol]
histologic score of inflammation (wild type (WT) mice): higher | itch phenotype by scratching bouts over time (wild type (WT) mice): marked chronic itch phenotype | skin inflammation measured by ear skin thickening and histologic features (wild type (WT) mice): robust skin inflammation

C[C@@H]1CCN(C(=O)CC#N)C[C@@H]1N(C)c1ncnc2[nH]ccc12 [tofacitinib]
itch symptoms in AD patients (AD patients; pilot studies and Phase II clinical trials): rapid and significant reduction | NRS itch score / itch symptoms (patients with CIP; CIP patients (N=5), 5 mg by mouth twice daily, one month): marked improvement; also recorded: improved significantly; also recorded: dramatic improvement | daily itch scores (NRS), single subject (patients with CIP; one CIP subject over 70 days, cyclosporine alone, then switched to JAK inhibitor): significant improvement

C[C@]12C=CC(=O)C=C1CC[C@@H]1[C@@H]2C(=O)C[C@@]2(C)[C@H]1CC[C@]2(O)C(=O)CO [prednisone]
muscle weakness (CIP patient (Case 2)): improved | pruritus (CIP patient (Case 2)): did not resolve

NCCc1c[nH]cn1 [histamine]
responsive neurons as a percentage of total mouse DRG neurons (mouse DRG neurons): ~25%

dupilumab: an anti-IL-4Rα monoclonal antibody
disease and itch severity in AD patients (AD patients; Phase II and III clinical trials): remarkable improvement

B1: IL-31: recombinant murine IL-31 (Bristol-Myers Squibb), known cytokine pruritogen (protein, UniProt Q6EAL8 24-163, looked up)
Interleukin-31: TCSLSFGAPISKEDLRTTIDLLKQESQDLYNNYSIKQASGMSADESIQLPCFSLDREALTNISVIIAHLEKVKVLSENTVDTSWVIRWLTNISCFNPLNLNISVPGNTDESYDCKVFVLTVLKQFSNCMAELQAKDNTTC
responsive neurons as a percentage of total mouse DRG neurons (mouse DRG neurons): approximately 5%

B2: IL-5: recombinant murine IL-5 (Peprotech) (protein, UniProt P04401 21-133, looked up)
Interleukin-5: MEIPMSTVVKETLTQLSAHRALLTSNETMRLPVPTHKNHQLCIGEIFQGLDILKNQTVRGGTVEMLFQNLSLIKKYIDRQKEKCGEERRRTRQFLDYLQEFLGVMSTEWAMEG
calcium response of DRG neurons to stimulation (mouse DRG neurons): no responses; also recorded: does not activate

B3: IL-13: recombinant murine IL-13 (Peprotech) (protein, UniProt P20109 19-131, looked up)
Interleukin-13: APGPVPRSVSLPLTLKELIEELSNITQDQTPLCNGSMVWSVDLAAGGFCVALDSLTNISNCNAIYRTQRILHGLCNRKAPTTVSSLPDTKIEVAHFITKLLSYTKQLFRHGPF
responsive neurons as a percentage of total mouse DRG neurons (mouse DRG neurons): 3.3±0.8% | calcium response of DRG neurons to stimulation (mouse DRG neurons): rapid rise of intracellular calcium in a subset of neurons | cytokine-responsive neurons that also responded to IL-31 or histamine (mouse DRG neurons): 75.0%
